Data as given in ChEMBL document CHEMBL1201862, “PubChem BioAssay data set” (2004).
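Method: 48-hour compound exposure of cells in 96-well plates, five concentrations, linear interpolation of endpoints. GI50: concentration for 50% inhibition of growth.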 Activity calls are given as the source filed them. Rule as the data show it: active = GI50 up to about 1.1 µM and inactive = higher.

Experiments:
Assay in all cases: inhibition of tumour cell growth, NCI panel, 48 h
Malme-3M = test system: Malme-3M
MOLT-4 = test system: MOLT-4
SK-MEL-28 = test system: SK-MEL-28
SNB-75 = test system: SNB-75
MCF7 = test system: MCF7
HCC 2998 = test system: HCC 2998
CCRF-CEM = test system: CCRF-CEM
OVCAR-8 = test system: OVCAR-8
COLO 205 = test system: COLO 205
SK-MEL-2 = test system: SK-MEL-2
RXF 393 = test system: RXF 393
UACC-257 = test system: UACC-257
SF-268 = test system: SF-268
M14 = test system: M14
SW-620 = test system: SW-620
EKVX = test system: EKVX
U-251 = test system: U-251
RPMI-8226 = test system: RPMI-8226
NCI/ADR-RES = test system: NCI/ADR-RES
A498 = test system: A498

SMILES	GI50 (Malme-3M)	GI50 (MOLT-4)	GI50 (SK-MEL-28)	GI50 (SNB-75)	GI50 (MCF7)	GI50 (HCC 2998)	GI50 (CCRF-CEM)	GI50 (OVCAR-8)	GI50 (COLO 205)	GI50 (SK-MEL-2)	GI50 (RXF 393)	GI50 (UACC-257)	GI50 (SF-268)	GI50 (M14)	GI50 (SW-620)	GI50 (EKVX)	GI50 (U-251)	GI50 (RPMI-8226)	GI50 (NCI/ADR-RES)	GI50 (A498)
CC(C)C1=Cc2ccc3c(c2C(=O)C1=O)CCCC3	2.58 µM (inactive)	0.78 µM (active)	7.5 µM (inactive)	2.05 µM (inactive)	1.59 µM (inactive)	17.1 µM (inactive)	0.65 µM (active)	5.64 µM (inactive)	11.4 µM (inactive)	7.35 µM (inactive)	4.32 µM (inactive)	3.47 µM (inactive)	7.11 µM (inactive)	5.11 µM (inactive)	3.3 µM (inactive)	9.14 µM (inactive)	19.1 µM (inactive)	2.12 µM (inactive)	21.4 µM (inactive)	13.1 µM (inactive)
O=C1C2C3C=CC(C2C(=O)N1CN1CCOCC1)C1C2C(=O)N(CN4CCOCC4)C(=O)C2C31 (stereo not given)	> 100 µM (inactive)	18.2 µM (inactive)	> 48.6 µM (inactive)	> 47.3 µM (inactive)	> 100 µM (inactive)	> 46.5 µM (inactive)	18.7 µM (inactive)	> 48.3 µM (inactive)	> 43 µM (inactive)	> 44 µM (inactive)	> 49 µM (inactive)	> 49.3 µM (inactive)	> 44.5 µM (inactive)	> 42.9 µM (inactive)	> 46.5 µM (inactive)	97.1 µM (inactive)	> 45.3 µM (inactive)	34.6 µM (inactive)	> 100 µM (inactive)	> 57.4 µM (inactive)
COc1ccc(C2OC(=O)c3ccc4ccccc4c32)c(C)c1 (stereo not given)	8.18 µM (inactive)	7.73 µM (inactive)	11.9 µM (inactive)	6.97 µM (inactive)	5.65 µM (inactive)	3.85 µM (inactive)	22.4 µM (inactive)	14.2 µM (inactive)	4.36 µM (inactive)	2.1 µM (inactive)	5.33 µM (inactive)	27.5 µM (inactive)	45.2 µM (inactive)	6.73 µM (inactive)	3.96 µM (inactive)	18.8 µM (inactive)	4.86 µM (inactive)	11.1 µM (inactive)	2.37 µM (inactive)	7.41 µM (inactive)
CC(=N\N=C\c1ccccn1)/C(C)=N/N=C(C)/C(C)=N/N=C(C)/C(C)=N/N=C/c1ccccn1	> 100 µM (inactive)	> 100 µM (inactive)	> 100 µM (inactive)	> 100 µM (inactive)	> 100 µM (inactive)	> 100 µM (inactive)	3.7 µM (inactive)	> 100 µM (inactive)	> 100 µM (inactive)	> 100 µM (inactive)	> 100 µM (inactive)	> 100 µM (inactive)	> 100 µM (inactive)	> 100 µM (inactive)	> 100 µM (inactive)	> 100 µM (inactive)	> 100 µM (inactive)	> 100 µM (inactive)	> 100 µM (inactive)	> 100 µM (inactive)
